One compound from US20260216138A1, “IDENTIFICATION OF OTUD7B INHIBITOR 7BI AND ITS APPLICATION IN REDUCING GROWTH OF NSCLC AND LEUKEMIA CELLS” (The University of North Carolina at Chapel Hill, priority 2023, published 2026) can be followed below.

Assay type in all cases: cell-based
Assay [1] has as its system Akt-pS473. As to the kind of experiment: Akt-pS473 immunoblot in HEK293 cells. As to the method:
Cells were harvested and lysed in EBC buffer (50 mM Tris pH 7.5, 120 mM NaCl, 0.5% NP-40) supplemented with protease inhibitor cocktail (EDTA-free, mini-tablet) (Bimake) and phosphatase inhibitor cocktail (Bimake) by rotating in the cold room for 10 min followed by high-speed centrifugation at 4° C. The protein concentrations in supernatants of whole cell lysates were measured by NanoDrop OneC using the Bio-Rad Bradford protein assay reagent. Equal amounts of whole cell lysates were resolved on SDS-PAGE and immunoblotted with indicated antibodies. For immunoprecipitation analysis, 1 mg of total cell lysate was incubated with the indicated beads for 3-4 hr at 4° C. The recovered immuno-complexes were washed thoroughly three times with NETN buffer (20 mM Tris, pH 8.0, 100 mM NaCl, 1 mM EDTA and 0.5% NP-40) before being resuspended in SDS sample buffer and resolved on SDS-PAGE and immunoblotted with indicated antibodies. […]

The test system of assay [2] is Akt-pS473. Put plainly: Akt-pS473 immunoblot in leukemia cells (HL60, K562, THP1). The following applies: indicated doses, 16 hrs. As to the method: (§1) Cells were harvested and lysed in EBC buffer (50 mM Tris pH 7.5, 120 mM NaCl, 0.5% NP-40) supplemented with protease inhibitor cocktail (EDTA-free, mini-tablet) (Bimake) and phosphatase inhibitor cocktail (Bimake) by rotating in the cold room for 10 min followed by high-speed centrifugation at 4° C. The protein concentrations in supernatants of whole cell lysates were measured by NanoDrop OneC using the Bio-Rad Bradford protein assay reagent. Equal amounts of whole cell lysates were resolved on SDS-PAGE and immunoblotted with indicated antibodies. For immunoprecipitation analysis, 1 mg of total cell lysate was incubated with the indicated beads for 3-4 hr at 4° C. The recovered immuno-complexes were washed thoroughly three times with NETN buffer (20 mM Tris, pH 8.0, 100 mM NaCl, 1 mM EDTA and 0.5% NP-40) before being resuspended in SDS sample buffer and resolved on SDS-PAGE and immunoblotted with indicated antibodies.
In addition to NSCLC, overexpression of OTUD7B was also observed in diffuse large B-cell lymphoma and served as a prognostic marker. This promoted us to examine roles of OTUD7B in leukemia cells. […] Similar to NSCLC cells, depletion of OTUD7B in K562 cells also led to increased K63-linked GβL ubiquitination (FIG. 4D). Consistent with a reduction in Akt-pS473 signals, OTUD7B depletion reduced the growth of THP1 (FIG. 4E), K562 (FIG. 4F) and HL60 (FIG. 4G) cells in vitro.

Assay [3] has as its system H1299 cells. As to the kind of experiment: Colony formation / growth of H1299 cells. The following applies: treated once for 10 days. As to the method: (§2) 500 cells from OTUD7B depleted A549 cells were seeded into each well of 6-well plates and cultured in the 37° C. incubator with 5% CO2 for 10-15 days until formation of visible colonies. Triplicates were performed. To test the effect of a given inhibitor on colony formation ability, 800 cells from A549, H520 and H1299 cell lines were seeded into each well of 6-well plates, respectively. Each inhibitor was added at indicated concentration the next day. Colonies were counted after 10 days of treatment. The colony staining method was as described. […] Colony numbers were counted manually. […]
(§3) 2,000 cells from indicated NSLC cell lines were seeded into each well of 96-well plates. Cell viability was measured 3 days post-treatment using MTT assays following manufacturer's instruction. […] Inhibitor was added the next day at indicated concentration and cell viability was measured after 3-day treatment. For cell proliferation assays in THP1, K562 and HL60 cell lines, 1×10^6 cells from each indicated cell line were seeded in 12.5 cm2 cell culture flask and cells were counted by hemocytometer under microscope at indicated time to monitor cell proliferation. […] Inhibitor was added the next day at indicated concentrations and cell number was counted after 3 days treatment. […]

For assay [4], the system named is THP1 cells. Put plainly: Leukemia cell proliferation, THP1. The following applies: 72 hrs. As to the method:
2,000 cells from indicated NSLC cell lines were seeded into each well of 96-well plates. Cell viability was measured 3 days post-treatment using MTT assays following manufacturer's instruction. For cell viability assays with inhibitor treatment, 2,000 cells from indicated NSLC and HEK293 cell lines were seeded in 96-well plate. Inhibitor was added the next day at indicated concentration and cell viability was measured after 3-day treatment. For cell proliferation assays in THP1, K562 and HL60 cell lines, 1×10^6 cells from each indicated cell line were seeded in 12.5 cm2 cell culture flask and cells were counted by hemocytometer under microscope at indicated time to monitor cell proliferation. To test inhibitor effects on THP1, K562 and HL60 cell growth, 2×10^5 cells were seeded in 12.5 cm2 cell culture flask. Inhibitor was added the next day at indicated concentrations and cell number was counted after 3 days treatment. Three independent experiments were performed to generate error bars.

The test system of assay [5] is NSCLC cells. Put plainly: NSCLC cell growth. The conditions noted are these: read-out: IC50 values to suppress NSCLC cell growth. As to the method: as §2, §3
Assay [6] deals with T1, OTUD7B binding to GβL (Homo sapiens, UniProt Q6GQQ9).
T1 sequence (Q6GQQ9 1-843): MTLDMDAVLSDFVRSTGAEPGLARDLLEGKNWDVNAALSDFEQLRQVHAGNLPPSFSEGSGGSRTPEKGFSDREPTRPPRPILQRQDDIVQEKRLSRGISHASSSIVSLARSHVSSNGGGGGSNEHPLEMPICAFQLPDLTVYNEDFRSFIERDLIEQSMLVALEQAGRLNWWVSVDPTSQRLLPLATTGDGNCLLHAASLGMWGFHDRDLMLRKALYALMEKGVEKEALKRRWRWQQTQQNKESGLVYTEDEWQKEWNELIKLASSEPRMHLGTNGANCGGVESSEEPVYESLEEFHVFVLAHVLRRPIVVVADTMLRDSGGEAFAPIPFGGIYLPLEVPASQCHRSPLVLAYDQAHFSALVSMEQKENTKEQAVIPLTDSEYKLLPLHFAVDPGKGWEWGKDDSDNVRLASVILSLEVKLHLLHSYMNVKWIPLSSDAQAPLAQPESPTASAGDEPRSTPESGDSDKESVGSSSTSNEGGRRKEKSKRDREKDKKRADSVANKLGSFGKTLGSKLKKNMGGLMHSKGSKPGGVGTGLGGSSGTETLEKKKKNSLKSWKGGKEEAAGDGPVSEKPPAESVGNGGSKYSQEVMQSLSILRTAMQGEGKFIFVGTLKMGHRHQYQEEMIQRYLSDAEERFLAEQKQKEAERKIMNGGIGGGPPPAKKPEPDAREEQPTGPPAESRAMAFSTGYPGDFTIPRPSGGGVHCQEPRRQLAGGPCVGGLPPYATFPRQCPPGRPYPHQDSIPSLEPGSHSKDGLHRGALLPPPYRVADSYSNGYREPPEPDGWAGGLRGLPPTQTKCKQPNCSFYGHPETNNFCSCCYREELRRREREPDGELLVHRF
As to the kind of experiment: OTUD7B binding to GβL. As for the experimental part: as §1

pIC50: −log10 of the molar value.

Consider `Cc1cc(NC(=O)c2cnn(C)c2C(=O)Nc2cc(C)nn2C2CCCC2)n(C2CCCC2)n1` [7Bi], for which the “downregulation of Akt-pS473 signals by purified 7Bi” value in assay [1] (HPLC purified 7Bi (~99% purity) compared with 90% purity) is on record as “retained its ability”. The “suppression of Akt-pS473” value in assay [1] (indicated doses, 16 hrs) is reported as “efficiently suppressed Akt-pS473”. Besides, the Akt-pS473 signals entry in assay [2] (HL60 cells), in assay [2] (K562 cells) and in assay [2] (THP1 cells) was “reduced Akt-pS473 signals” throughout. The cell growth entry in assay [3] was “reduced growth”. Moreover, the cell proliferation entry in assay [4] was “reduced proliferation”. Besides, the pIC50 in assay [5] is about 5.60. Also, in assay [6], the “OTUD7B binding to GβL” value is “nor significantly affected OTUD7B binding to GβL”.
